Measurements: patent US8080423B2, “Reagent containing protease reaction promoter and/or colorant stabilizer” (Asahi Kasei Pharma Corporation, priority 2004, dated 2011)

Experiments:
[1] = target: hemoglobin (Homo sapiens, UniProt P68871+P69905); test: Measurement of hemoglobin and stability of reagent (Example 9); type: physicochemical; settings: Example 2 reagent with 1% promoter; 660 nm; FIG. 1
Description: By using the reagents of Example 2, measurement was performed for a standard product having a known hemoglobin concentration.
Measurement was performed by using an autoanalyzer (Hitachi autoanalyzer 7170S; manufactured by Hitachi Ltd.). 20 μl of a sample was added with 180 μl of each of the reagents, and changes in absorbance were measured at 660 nm. Water was used as a control, and differences in absorbance between the sample and the water were calculated after 5 minutes. 5-serially diluted products of the standard hemoglobin product were used as the sample.
In addition, a preservation test was performed for a reagent in which sarcosinate MN was used as a protease reaction promoter at 37° C. for 4 days. The measurement of 5.5 g/dl of the standard hemoglobin product was performed by using, as a calibrator, a 30-fold diluted product of a standard substance for HbA1c measurement (primary calibrator JDS HbA1c Lot2, manufactured by Health Care Technology Foundation, level 1, hemoglobin concentration of 135 g/L). As a result, the measurement values of the hemoglobin were 54 mAbs, 4.5 g/L before the preservation test and 50 mAbs, 4.6 g/L after the preservation test. From the results, it was assumed that the present reagent is stable for 6 months or longer under refrigeration.

[2] = tested on: Neutral protease (manufactured by Toyobo Co., Ltd.); test: Screening of protease reaction promoter (Example 1); type: biochemical; settings: for protease reaction promoting effect (in words): judged from Table 1; for AH − AL / AH (absorbance from primary calibrator at level 4 (9.88%)) / AL (absorbance from primary calibrator at level 2 (5.38%)): 660 nm
Description: 1) R-1: Reagent for Protein Decomposition
2) R-2: Reagent for Glycated Amino Acid Detection
The following substances were independently used as a test sample. Note that concentrations described in parentheses each represent a final concentration of the substance in the reagent R1.
Absorbance before the addition of the reagent R-2 and 5 minutes after the addition was measured at 660 nm. […] The AH-AL shown in Table 1 is a difference obtained by subtracting absorbance AL which was obtained from the primary calibrator at level 2 (5.38%) from absorbance AH which was obtained from the primary calibrator at level 4 (9.88%). Here, if AH-AL is large, the sample is judged to have a protease reaction promoting effect. In particular, when AH-AL is 20 or more, the sample has an excellent promoting effect.

[3] = target: T1, protease (Bacillus licheniformis, UniProt P00780); test: Effect of protease reaction promoter on glycated albumin measurement (Example 12); type: biochemical
T1 construct: purchased Sigma Aldrich Japan K.K
Description: The reagents of Example 5 were used. 240 μl of the reagent R-1 which had been incubated to 37° C. was added with 8 μl of a control plasma H (manufactured by BML Inc.); […], and absorbance thereof was measured using a dominant wavelength of 546 nm and a subwavelength of 700 nm. A reaction was initiated at 37° C., and 80 μl of the R-2 reagent was added to the mixture exactly 5 minutes after the initiation. Absorbance before the addition of the R-2 reagent and after 5 minutes of the addition was measured. In addition, measurement was performed for a blank which was prepared by using distilled water instead of the substrate solution. The change in absorbance obtained from the control substrate solution was subtracted by the change in absorbance obtained from the blank sample, to thereby calculate ΔA0. Conversion of the values was performed by simultaneous measurement for a calibrator (manufactured by Asahi Kasei Pharma Corporation) for Lucica GA and comparison of absorbance. The measurement value for albumin was obtained from a difference in absorbance which was obtained by subtracting absorbance immediately before the addition of the R-2 reagent from absorbance immediately after the addition of the sample. […]

[4] = Screening of stabilizer for colorant, DA64 (Example 13); type: physicochemical; settings: DA-64, 750 nm, 37° C., additives at conc. (1%; IDA 1 mM; Zn, Al 0.1 mM; ferrocyanide 0.01 mM; sorbitol 5%; DMSO 10%)
Description: (§1) The following substances were used as test samples. Note that concentrations described in parentheses each represent a final concentration of the substance in the reagent R-1.
(§2) Tween-20 (1%), Brij35 (1%), Triton X-100 (1%), deoxycholic acid (1%), imino-diacetic acid (IDA; 1 mM), ZnSO4 (0.1 mM), AlCl3 (0.1 mM), potassium ferrocyanate (0.01 mM), sorbitol (5%), glucose (5%), sodium nitrite (2 mM), dimethylsulfoxide (DMSO; 10%) (those substances are manufactured by Wako Pure Chemical Industries, Inc.), 2-hydroxypropyl-β-cyclodextrin (2HP β CD; 0.5%, 2%, 5%) and methyl-β-cyclodextrin (M β CD; 0.5%, 2%, 5%) (those substances are manufactured by Nihon Shokuhin Kako Co., Ltd.).
(§3) 500 μl of the R-1 reagent and 500 μl of the R-2 which had been incubated to 37° C. were mixed. The mixture was incubated to 37° C. for 2 minutes, and absorbance thereof (A0) was measured. The mixture was added with 10 μl of 500 μM hydrogen peroxide or distilled water. The whole was incubated to 37° C., and absorbance exactly 5 minutes after the addition of hydrogen peroxide (A1) was measured, to calculate a change in absorbance ΔA (A1-A0). The absorbance was measured using a wavelength of 750 nm when DA64 was used as the colorant, a wavelength of 660 nm when DA67 was used as the colorant, and a wavelength of 570 nm when 4-AA-TOOS was used as the colorant.
(§4) Immediately after the preparation of the reagent, the reagent was preserved at 37° C. for 2 days and 9 days, and measurement of sensitivity of a blank which was distilled water and of hydrogen peroxide was performed.

[5] = Screening of stabilizer for colorant, MBTH-TOOS (Example 13); type: physicochemical; settings: MBTH-TOOS, 570 nm, 37° C., additives at conc. (1%; IDA 1 mM; Zn, Al 0.1 mM; ferrocyanide 0.01 mM; sorbitol 5%; DMSO 10%)
[6] = Screening of stabilizer for colorant, DA67 (Example 13); type: physicochemical; settings: DA-67, 660 nm, 37° C., additives at conc. (1%; IDA 1 mM; Zn, Al 0.1 mM; ferrocyanide 0.01 mM; sorbitol 5%; DMSO 10%)
Description: as §1, §2, §3, §4

[7] = Effect of catalase addition on reagent containing cyclodextrin and colorant (Example 14); type: physicochemical; settings: for 500 μM hydrogen peroxide / Blank: DA-67, 2% 2-hydroxypropyl-β-cyclodextrin, 500 U/ml catalase, 37° C.
Description: as §3
The same operation method as in Example 13 was used. Immediately after the preparation of the reagent, the reagent was preserved at 37° C. for 2 days and 9 days, and measurement of sensitivity of a blank which was distilled water and of hydrogen peroxide was performed.

[8] = test sample 1% in R-1, 20 or more = excellent promoting effect

T1 sequence (P00780 106-379): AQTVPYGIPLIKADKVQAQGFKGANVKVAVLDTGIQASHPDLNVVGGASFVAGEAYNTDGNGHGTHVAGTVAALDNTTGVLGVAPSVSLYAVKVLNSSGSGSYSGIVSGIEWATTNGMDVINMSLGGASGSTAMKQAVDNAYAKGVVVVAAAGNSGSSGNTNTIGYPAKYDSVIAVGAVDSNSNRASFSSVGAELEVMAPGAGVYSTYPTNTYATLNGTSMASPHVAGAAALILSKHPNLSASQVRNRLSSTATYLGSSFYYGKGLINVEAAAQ
Sequence of hemoglobin (P69905 2-142 limits assumed): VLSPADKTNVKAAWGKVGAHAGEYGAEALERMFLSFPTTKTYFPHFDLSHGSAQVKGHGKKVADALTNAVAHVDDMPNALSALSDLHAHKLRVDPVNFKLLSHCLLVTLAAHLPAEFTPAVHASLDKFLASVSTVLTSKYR
Sequence of hemoglobin (P68871 2-147 limits assumed): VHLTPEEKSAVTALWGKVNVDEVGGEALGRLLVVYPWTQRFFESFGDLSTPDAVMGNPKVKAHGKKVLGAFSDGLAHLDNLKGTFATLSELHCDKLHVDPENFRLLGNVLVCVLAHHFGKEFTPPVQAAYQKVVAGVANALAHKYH

Molecule | quantification of hemoglobin (in words) [1] | protease reaction promoting effect (in words) [2] | AH − AL [2, 8] [mAbs] | AH (absorbance from primary calibrator at level 4 (9.88%)) ([2]; test sample 1% in R-1) | AL (absorbance from primary calibrator at level 2 (5.38%)) ([2]; test sample 1% in R-1) | blank (distilled water) change in absorbance ([4]; 0 days) [Abs] | blank (distilled water) change in absorbance ([4]; 2 days) [Abs] | blank (distilled water) change in absorbance ([4]; 9 days) [Abs] | blank (distilled water) change in absorbance ([5]; 0 days) [Abs] | blank (distilled water) change in absorbance ([5]; 2 days) [Abs] | blank (distilled water) change in absorbance ([6]; 0 days) [Abs] | blank (distilled water) change in absorbance ([6]; 2 days) [Abs] | also measured
CCCCCCCCCCCCOCCOCCOCCOCCOCCOCCOCCOCCOCCOCCOCC(=O)O [AKYPO-RLM100, polyoxyethylene(10)lauryl ether acetic acid] | hemoglobin was able to be quantified | effects were observed | 29.1 | – | – | – | – | – | – | – | – | – | –
CCCCCCCCCCCC(=O)N(C)CCC(=O)[O-].[Na+] [Alaninate LN-30, sodium lauroyl methyl alaninate] | – | effects were observed | 26.7 | 92.3 | 65.6 | – | – | – | – | – | – | – | sensitivity of the GA measurement ([3]; control serum, no dilution, with protease reaction promoter (without: 32 mAbs)): 48 mAbs; increase of reaction rate ([3]; with vs without protease reaction promoter): 1.5 folds
CCCCCCCCCCCCCCCCCC(=O)N(C)CCS(=O)(=O)[O-].[Na+] [SMT, sodium N-stearoyl methyl taurinate] | hemoglobin was able to be quantified | effects were observed | 23.8 | 110.2 | 86.4 | – | – | – | – | – | – | – | –
OC[C@@H](O)[C@@H](O)[C@H](O)[C@@H](O)CO [Sorbitol, sorbitol, reference compound] | – | – | – | – | – | −0.010 | 0.080 | 0.230 | 0.151 | 1.225 | 0.093 | 2.545 | AH (absorbance from primary calibrator at level 4 (9.88%)) ([2]; test sample 5% in R-1): 68.3; AH − AL ([2]; test sample 5% in R-1): 6.5 mAbs; AL (absorbance from primary calibrator at level 2 (5.38%)) ([2]; test sample 5% in R-1): 61.8
TritonX-100 [reference compound] | – | – | 5.2 | 44.9 | 39.7 | −0.005 | 0.080 | 0.221 | 0.146 | 1.135 | 0.085 | 2.100 | –
catalase | – | – | – | – | – | – | – | – | – | – | – | – | 500 μM hydrogen peroxide ([7]; 0 days): 0.510; Blank ([7]; 0 days): 0.057; 500 μM hydrogen peroxide ([7]; 2 days): 0.335; Blank ([7]; 2 days): 0.452; 500 μM hydrogen peroxide ([7]; 9 days): 0.304; Blank ([7]; 9 days): 1.052; effect of catalase addition on blank after preservation (in words) ([7]; Table 4): the blank after preservation significantly decreased
